Patent US6413529B1, “Antimicrobial wipes which provide improved residual benefit versus gram negative bacteria” (The Procter & Gamble Company, priority 1999, dated 2002)

System: Microtox Acute Toxicity Reagent (Vibrio fischerio)
Experiment: Microtox Response Test (Microtox Response Index of anionic surfactant)
Type: cell-based
Conditions: pure anionic surfactant; EC50 for 50% decrease of bioluminescence, 5 minutes
Description: The biological activity/mildness of a pure surfactant can measured directly via a Microtox Response Test hereinafter described in the Analytical Methods section and can be reported as a Microtox Response Index. By “pure surfactant” it is meant a chemical composition consisting essentially of a single surfactant entity, wherein the entity has essentially one chain length, head group and salt counter ion. From a standpoint of high biological activity, preferred anionic surfactants of the antimicrobial cleansing compositions of the present invention have a Microtox Response Index of less that about 150, more preferably less than about 100 and most preferably less than about 50. […]
For surfactant compositions which are mixtures of surfactants rather than pure surfactants (this includes “commercial grade” surfactants which typically comprise mixtures of entities with different chain lengths and potentially have higher levels of impurities), the Microtox Response Index for any individual surfactant component is not a reliable measurement of biological activity or mildness. In the case of mixtures, the Microtox Index of each individual component can be determined and the weighted average used as the Index for the mixture if all the individual components of the mixture are known. […]

| Molecule | Microtox Index [ppm] |
| --- | --- |
| CCCCCCCCCCCCOS(=O)(=O)O.N [ammonium lauryl sulfate] | 1.0 |
| ammonium laureth-3 sulfate | 120 |
